A short description of series [1]: Inhibition of VEGFR2 (unknown origin) expressed in mouse NIH/3T3 cells assessed as reduction in aFGF and heparin-induced autophosphorylation incubated for 5 mins before stimulation for 5 mins with aFGF and heparin by SDS-PAGE and immunoblot method. It is filed as cell-based. The settings on record: NIH3T3.
The nature of series [2]: Toxicity in bFGF-induced Swiss Webster mouse angiogenesis model at 1 mg/kg, ip starting 3 days prior to or on the day of pellet implantation and then daily until day 5 post-implantation by Corneal neovascularization assay. It is filed as organism-based. To be noted: in vivo, 192 h, time 8 day.
Series [3] concerns the target Dual specificity mitogen-activated protein kinase kinase; MEK1/2 (Homo sapiens, UniProt P36507+Q02750). Nature of the series: Inhibition of MEK (unknown origin) in presence of ATP. It is filed as protein assay.
Series [4] has as its system Mus musculus. Kind of series: Inhibition of VEGF-induced neovascularization in Swiss Webster mouse angiogenesis model at 2 mg/kg, ip starting 3 days prior to or on the day of pellet implantation and then daily until day 5 post-implantation by Corneal neovascularization assay. It is filed as functional. The settings on record: 192 h, time 8 day.
Series [5] is described as follows: Inhibition of PDGFR cytoplasmic domain (unknown origin) in presence of ATP. Further details: species or system Homo sapiens.
Series [6] concerns Mus musculus. Nature of the series: Inhibition of FGF-induced neovascularization in Swiss Webster mouse angiogenesis model at 1 mg/kg, ip starting 3 days prior to or on the day of pellet implantation and then daily until day 5 post-implantation by Corneal neovascularization assay. It is filed as functional. To be noted: 192 h, time 8 day.
Series [7] is described as follows: Inhibition of PKCalpha/beta/gamma isotype mixtures (unknown origin) in presence of ATP. Further details: species or system Homo sapiens.
In series [8] the target is Fibroblast growth factor receptor 1 (Mus musculus, UniProt P16092). Kind of series: Inhibition of FGFR1 autophosphorylation in mouse NIH/3T3 cells assessed as reduction in aFGF and heparin-induced autophosphorylation incubated for 5 mins before stimulation for 5 mins with aFGF and heparin by SDS-PAGE and immunoblot method. It is filed as cell-based.
For series [9], the target named is Proto-oncogene tyrosine-protein kinase Src (Homo sapiens, UniProt P12931). Kind of series: Inhibition of c-SRC (unknown origin) in presence of ATP.

One molecule from ChEMBL document CHEMBL5647700, “Crystal structure of an angiogenesis inhibitor bound to the FGF receptor tyrosine kinase domain” (EMBO J, 1998) can be followed below.

Proto-oncogene tyrosine-protein kinase Src, sequence (P12931 2-536 limits assumed): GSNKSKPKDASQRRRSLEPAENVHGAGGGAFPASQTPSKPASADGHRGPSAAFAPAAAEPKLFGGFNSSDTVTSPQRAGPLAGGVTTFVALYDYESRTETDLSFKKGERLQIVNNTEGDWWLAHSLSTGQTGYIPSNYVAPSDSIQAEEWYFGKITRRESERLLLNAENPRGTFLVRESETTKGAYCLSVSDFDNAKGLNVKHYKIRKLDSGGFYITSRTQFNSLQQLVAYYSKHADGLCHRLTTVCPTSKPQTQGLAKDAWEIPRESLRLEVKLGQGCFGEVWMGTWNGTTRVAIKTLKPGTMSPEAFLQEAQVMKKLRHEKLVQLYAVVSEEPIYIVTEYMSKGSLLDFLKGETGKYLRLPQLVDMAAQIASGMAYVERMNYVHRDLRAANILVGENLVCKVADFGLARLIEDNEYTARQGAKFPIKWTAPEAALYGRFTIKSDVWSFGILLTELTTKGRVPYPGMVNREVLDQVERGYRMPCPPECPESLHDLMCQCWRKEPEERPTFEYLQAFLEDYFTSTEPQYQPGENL
Fibroblast growth factor receptor 1, sequence (P16092 whole entry): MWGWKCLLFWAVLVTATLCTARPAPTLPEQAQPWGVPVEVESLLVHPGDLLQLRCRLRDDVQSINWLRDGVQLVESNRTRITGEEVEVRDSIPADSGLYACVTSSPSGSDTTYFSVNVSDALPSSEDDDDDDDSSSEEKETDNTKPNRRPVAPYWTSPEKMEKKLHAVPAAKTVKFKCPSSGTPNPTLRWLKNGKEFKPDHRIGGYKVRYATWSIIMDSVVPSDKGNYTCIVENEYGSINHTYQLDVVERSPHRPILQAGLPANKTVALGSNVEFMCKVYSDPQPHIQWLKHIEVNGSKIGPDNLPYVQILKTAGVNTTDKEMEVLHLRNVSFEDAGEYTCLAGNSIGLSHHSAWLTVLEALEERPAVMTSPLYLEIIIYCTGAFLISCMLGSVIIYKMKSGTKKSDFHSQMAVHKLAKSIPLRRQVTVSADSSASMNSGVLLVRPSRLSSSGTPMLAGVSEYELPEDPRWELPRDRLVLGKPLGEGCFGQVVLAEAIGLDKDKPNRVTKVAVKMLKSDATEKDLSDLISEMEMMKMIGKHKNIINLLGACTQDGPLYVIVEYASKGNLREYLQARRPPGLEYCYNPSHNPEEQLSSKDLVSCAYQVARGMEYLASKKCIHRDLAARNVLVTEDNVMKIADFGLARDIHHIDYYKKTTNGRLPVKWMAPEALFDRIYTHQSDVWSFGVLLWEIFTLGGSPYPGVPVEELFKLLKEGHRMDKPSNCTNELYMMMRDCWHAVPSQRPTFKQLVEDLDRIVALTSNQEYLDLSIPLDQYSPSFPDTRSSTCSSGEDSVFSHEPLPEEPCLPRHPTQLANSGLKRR

Turning to `CCN(CC)CCCCNc1ncc2cc(-c3cc(OC)cc(OC)c3)c(NC(=O)NC(C)(C)C)nc2n1` [PD-173074], the concentration for half-maximal inhibition (IC50) (commonly the concentration at which inhibition is half-maximal) in [1] is 0.1 µM; in [3], greater than 50 µM; in [5], 17.6 µM; in series [7], greater than 50 µM; in series [8], 0.001 µM; in series [9], 19.8 µM. Further, in series [2], the Activity entry is on record as “Non-Toxic”. The inhibition in vivo (usually the change of the read-out against control, counted positive when it falls) at 2 mg/kg in series [4] is 81%. In addition, the inhibition in vivo at 1 mg/kg in series [6] came to 86%.
